Bridges are numbered along the chain shown (N, C = ends). Where no end group is shown, it is not given here.
Columns and labels:
[1] = system: 9O12.2 IgG; test: SPR, 9O12.2 IgG injected over immobilized B-collagelin; format: binding; conditions: SPR, peptide reduced by DTT on the sensorchip, IgG 8 µg/ml
Description: (§1) 9O12.2 IgG was injected over biotin-peptides coupled to an SA-sensorchip in a Biacore 2000 instrument. […] In some experiments, the peptide was reduced by DTT on the sensor chip before the IgG was injected. Competition experiments were performed by mixing the IgG with recombinant soluble GPVI (25 µg.mL^−1). Collagen binding to the peptide was analyzed by injecting type-I collagen (200 µg.mL^−1) onto the peptide-coated sensorchip. Conversely, biotin-peptides (125, 250, 500 and 1000 µg.mL^−1) were perfused over fibrillar collagen immobilized on a CM5-sensorchip.

[2] = target: T1, type III collagen (Homo sapiens, UniProt P02461); test: Solid phase assay, type III collagen; format: binding; conditions: biotin-peptide 50 µg/mL, microtitration plate, n = 3
T1 sequence (P02461 154-1221 limits assumed): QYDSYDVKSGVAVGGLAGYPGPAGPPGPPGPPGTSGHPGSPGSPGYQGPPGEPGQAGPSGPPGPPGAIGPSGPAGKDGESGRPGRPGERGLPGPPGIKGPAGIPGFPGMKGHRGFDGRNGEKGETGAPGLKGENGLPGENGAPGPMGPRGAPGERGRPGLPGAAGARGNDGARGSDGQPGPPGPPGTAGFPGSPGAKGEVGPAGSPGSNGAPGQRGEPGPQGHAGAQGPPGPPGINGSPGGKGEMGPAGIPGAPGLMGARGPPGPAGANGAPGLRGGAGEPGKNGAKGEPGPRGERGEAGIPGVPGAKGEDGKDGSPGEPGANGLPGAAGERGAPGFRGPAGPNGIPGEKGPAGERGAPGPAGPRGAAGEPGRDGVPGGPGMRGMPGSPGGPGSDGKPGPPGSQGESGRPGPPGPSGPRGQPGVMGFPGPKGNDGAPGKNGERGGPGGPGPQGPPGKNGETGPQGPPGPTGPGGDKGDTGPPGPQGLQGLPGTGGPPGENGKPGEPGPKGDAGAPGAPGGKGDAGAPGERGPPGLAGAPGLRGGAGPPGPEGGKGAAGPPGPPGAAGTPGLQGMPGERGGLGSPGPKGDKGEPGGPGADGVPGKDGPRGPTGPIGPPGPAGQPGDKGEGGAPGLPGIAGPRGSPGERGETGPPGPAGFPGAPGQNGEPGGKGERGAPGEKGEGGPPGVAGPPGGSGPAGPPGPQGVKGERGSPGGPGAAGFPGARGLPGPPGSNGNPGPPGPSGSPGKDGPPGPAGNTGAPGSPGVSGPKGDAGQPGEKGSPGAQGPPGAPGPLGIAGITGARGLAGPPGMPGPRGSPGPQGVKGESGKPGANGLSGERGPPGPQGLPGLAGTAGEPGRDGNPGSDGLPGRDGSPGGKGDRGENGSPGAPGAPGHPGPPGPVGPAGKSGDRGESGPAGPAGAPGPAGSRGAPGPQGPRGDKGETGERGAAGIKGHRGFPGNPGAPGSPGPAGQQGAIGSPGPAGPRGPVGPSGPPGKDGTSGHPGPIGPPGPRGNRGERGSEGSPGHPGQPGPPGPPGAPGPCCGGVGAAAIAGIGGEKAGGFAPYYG

[3] = system: collagen rich lesions of fibrotic lungs; test: Histochemical analysis of healthy and fibrotic lung sections; design: species or system mouse; conditions: paraffin embedded lung sections of bleomycin-treated mice, HRP-coupled streptavidin
Description: Figure 6 Imaging of lung fibrosis. A: Paraffin embedded sections of lungs from a bleomycin-treated mice were incubated with B-collagelin and detected using HRP-coupled streptavidin. Sections were counter-stained with hematoxylin. Contiguous serial sections were stained with picrosirius red. Representative images are shown. B: Whole body planar scintigraphy of a bleomycin-treated mouse (left) and a control mouse (right). Representative images acquired one hour after the injection of 99mTc-collagelin are shown. C: Corresponding lung autoradiography and histology (picrosirius staining) showing the colocalisation of 99mTc-collagelin with fibrosis. D: Lung autoradiogaphy and histology from a mice treated with the control 99mTc-Pc.

[4] = system: fibrotic myocardial infarction scar; format: in vivo, rat; conditions: rat, in vivo
Description: Myocardial infarction of the left ventricle was induced in rats as follows. Male Wistar rats (CERJ, France) were housed in a controlled environment and fed with a standard rat chow. Myocardial infarction of the left ventricle was induced by ligature of the left descending coronary artery performed under general anesthesia [1 mL.kg^−1 i.p. ketamine (Imalgene 500, Merial) and 0.5 mL.kg^−1 i.p. xylazine (Rompun, Bayer)] and positive pressure ventilation, as described. This protocol was performed under a permit from the French Veterinary Services Directorate.
Two types of control animals were used: healthy rats, and healthy rats which had undergone a simple throracotomy (sham-operated). ^99mTc-biotin-collagelin blood kinetics and biodistribution were investigated by counting blood samples (taken from a jugular catheter) for 6 h after i.v. injection, and organs (extracted after sacrifice) 2 h after injection in a gamma-counter, together with aliquots of the injected preparation (CobraII, Packard, Meriden, USA). Ex vivo myocardial labeling and isotopic imaging were performed 4 weeks after the coronary ligature (or throracotomy), when the lesions had had the time to heal.
For in vivo experiments, radiotracers (70 MBq) were administered i.v. to anesthetized animals (pentobarbital i.p. 6 mg/100 g BW, Ceva Santé Animale, France) within 2 h of radiolabeling. Scintigraphic images were obtained 0–2 h, 4 h, 6 h, 10 h and 24 h after injecting ^99mTc-streptavidin-biotin peptides and 0–3 h after injecting ^99mTc-biotinylated peptides. Planar and tomographic 1-h acquisitions were performed using a dedicated small animal γIMAGER system (Biospace Lab, Paris, France) equipped with 2 parallel low-energy high-resolution collimators (matrix 128×128, 15% energy window centered on 140 KeV). Tracer uptake in the left cardiac area was assessed visually. Two regions of interest were drawn on the scintigrams, over the heart and over the right lung. The mean activity (cpm) per pixel was determined in each region of interest. Then heart-to-lung activity ratios (HLR) were calculated on both planar and transversal tomographic images.

[5] = system: platelet function; test: Effect on platelet function; conditions: stated in discussion, no method given
[6] = target: fibrillar type I collagen (Homo sapiens, UniProt P02452+P08123); test: SPR, biotin-peptides perfused over collagen-coated sensorchip; format: binding; conditions: fibrillar type I collagen on CM5-sensorchip
Description: as §1

[7] = system: collagen fibers of the infarct scars; test: Post mortem autoradiography of frozen myocardial sections; format: in vivo, rat; conditions: 99mTc-streptavidin-coupled peptides
Description: After sacrificing the animals, the heart was removed and frozen, then 20-micrometer thick myocardial sections were cut perpendicular to the short axis of the ventricles in a cryostat, and exposed in a radioimager for 16 h. According to calibration studies performed with activity standards of tissue-equivalent homogenates, 50 counts/mm^2 of ^99m Tc-labeled tracers corresponded to ∼210 kBq/mg in autoradiography. The myocardial sections used for autoradiography, and contiguous heart sections (5 µm) fixed in acetone (−20°C), were stained with hematoxylin-eosin, Masson's trichrome and picrosirius red to determine the location and extent of the fibrotic myocardial scarring.

Chain of fibrillar type I collagen (P02452 162-1218 limits assumed): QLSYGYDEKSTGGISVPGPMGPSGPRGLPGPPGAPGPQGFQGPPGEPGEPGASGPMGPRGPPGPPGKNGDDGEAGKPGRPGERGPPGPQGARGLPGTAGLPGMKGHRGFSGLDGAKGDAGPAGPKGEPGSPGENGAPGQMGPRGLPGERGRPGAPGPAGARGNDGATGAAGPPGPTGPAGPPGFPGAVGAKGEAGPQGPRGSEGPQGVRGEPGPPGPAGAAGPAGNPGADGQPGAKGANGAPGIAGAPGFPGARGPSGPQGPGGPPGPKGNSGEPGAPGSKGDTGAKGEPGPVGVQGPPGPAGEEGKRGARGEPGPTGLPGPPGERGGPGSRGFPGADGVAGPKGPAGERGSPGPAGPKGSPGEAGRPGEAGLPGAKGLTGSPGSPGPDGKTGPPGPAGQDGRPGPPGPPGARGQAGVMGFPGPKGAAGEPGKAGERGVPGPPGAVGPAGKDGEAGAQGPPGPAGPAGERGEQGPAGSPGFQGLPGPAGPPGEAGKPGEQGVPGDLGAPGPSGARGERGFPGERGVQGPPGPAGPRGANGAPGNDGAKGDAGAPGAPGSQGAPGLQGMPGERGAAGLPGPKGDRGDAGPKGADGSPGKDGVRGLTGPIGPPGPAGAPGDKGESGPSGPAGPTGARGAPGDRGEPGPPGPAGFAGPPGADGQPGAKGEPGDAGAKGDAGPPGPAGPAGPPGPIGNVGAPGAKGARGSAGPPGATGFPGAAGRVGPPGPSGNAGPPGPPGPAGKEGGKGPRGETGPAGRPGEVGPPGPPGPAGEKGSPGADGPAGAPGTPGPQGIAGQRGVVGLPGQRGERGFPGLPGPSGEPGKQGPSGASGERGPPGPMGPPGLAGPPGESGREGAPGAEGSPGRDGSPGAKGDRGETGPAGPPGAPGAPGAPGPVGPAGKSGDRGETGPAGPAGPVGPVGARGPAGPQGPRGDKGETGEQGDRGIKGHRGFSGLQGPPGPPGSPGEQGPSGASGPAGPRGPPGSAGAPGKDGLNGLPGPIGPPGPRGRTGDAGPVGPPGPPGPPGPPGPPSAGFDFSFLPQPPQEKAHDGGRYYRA
Chain of fibrillar type I collagen (P08123 80-1119 limits assumed): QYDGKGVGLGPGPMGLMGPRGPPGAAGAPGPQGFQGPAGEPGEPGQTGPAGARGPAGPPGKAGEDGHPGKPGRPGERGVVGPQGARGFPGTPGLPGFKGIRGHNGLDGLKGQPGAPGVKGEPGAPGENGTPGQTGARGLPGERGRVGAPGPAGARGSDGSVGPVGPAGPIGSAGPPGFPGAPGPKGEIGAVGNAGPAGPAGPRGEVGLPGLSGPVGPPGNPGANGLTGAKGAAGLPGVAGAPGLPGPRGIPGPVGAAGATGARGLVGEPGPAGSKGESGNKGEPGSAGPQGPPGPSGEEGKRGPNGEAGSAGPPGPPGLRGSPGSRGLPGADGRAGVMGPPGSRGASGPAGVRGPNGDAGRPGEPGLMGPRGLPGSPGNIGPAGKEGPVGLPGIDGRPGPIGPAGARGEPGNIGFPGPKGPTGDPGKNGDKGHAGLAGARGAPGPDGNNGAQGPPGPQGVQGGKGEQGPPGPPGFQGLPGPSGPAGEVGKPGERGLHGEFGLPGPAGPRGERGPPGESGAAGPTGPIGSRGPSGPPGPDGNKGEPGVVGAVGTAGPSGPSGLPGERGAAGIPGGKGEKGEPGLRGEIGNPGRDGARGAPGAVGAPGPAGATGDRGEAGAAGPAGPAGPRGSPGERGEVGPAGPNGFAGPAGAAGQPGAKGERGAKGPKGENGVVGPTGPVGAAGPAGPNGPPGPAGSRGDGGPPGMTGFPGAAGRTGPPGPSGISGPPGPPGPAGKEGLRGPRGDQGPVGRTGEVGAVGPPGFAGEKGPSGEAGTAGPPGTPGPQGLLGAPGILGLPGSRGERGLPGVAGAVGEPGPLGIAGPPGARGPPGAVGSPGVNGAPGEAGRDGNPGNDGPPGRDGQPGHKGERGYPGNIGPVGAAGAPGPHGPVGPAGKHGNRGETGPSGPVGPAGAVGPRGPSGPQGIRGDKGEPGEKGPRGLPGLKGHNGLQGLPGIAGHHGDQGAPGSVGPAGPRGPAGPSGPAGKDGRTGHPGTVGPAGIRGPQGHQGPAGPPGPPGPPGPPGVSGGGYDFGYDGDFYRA

CSCC[C@@H]1NC(=O)[C@H](C(C)C)NC(=O)[C@H](CCCNC(=N)N)NC(=O)CNC(=O)[C@@H]2CCCN2C(=O)[C@@H](NC(=O)CNC(=O)[C@H](CO)NC(=O)CNC(=O)[C@H](CO)NC(=O)CCCC[C@@H]2SC[C@@H]3NC(=O)N[C@@H]32)CSSC[C@@H](C(N)=O)NC(=O)[C@@H]2CCCN2C(=O)CNC(=O)[C@H](CCC(=O)O)NC(=O)[C@H](CC(=O)O)NC(=O)[C@H](CC(=O)O)NC(=O)CNC(=O)[C@H](CC(C)C)NC(=O)[C@H](Cc2c[nH]cn2)NC(=O)[C@H](CC(C)C)NC(=O)CNC(=O)[C@H](Cc2c[nH]cn2)NC1=O [collagelin]
Binding of 9O12.2 IgG to reduced collagelin [1]: did not bind
Binding to immobilized type III collagen [2]: bound
Histochemical staining of lung sections [3]: coincided with the collagen rich lesions
Accumulation of the tracer in the skin of the animals [4]: did not notice any accumulation
Uptake in bone marrow [4]: low level
Effect on platelet function [5]: no effect

SGSGCGPQGARGLTGASAGGPC (disulfide 5-22 (inferred)) [reference compound]
Binding to collagen-coated sensorchip [6]: did not bind
Binding to immobilized type III collagen [2]: did not bind
Autoradiographic labeling of the infarct scar ([7]; frozen myocardium sections 6-8 hours after injection): little or no uptake
Mean infarct-to-remote myocardium radioactivity ratio ([7]; rats with MI, mean±SEM, p<0.006): 1.82±0.32
